According to US20260327193A1, “INHIBITORS OF PLASMA KALLIKREIN” (Rezolute, Inc., priority 2022, published 2026):

Tests used:
[1] = Caco-2 permeability assay; assay type: in vitro ADME; settings: human, 10 μM test compound, pH 7.4, 37° C., 120 minutes, direction of the value not given, read-out: Caco-2 Perm
Description: Permeability Assay. A permeability study was conducted using Caco-2 cells (ECACC Cat. no. 09042001) seeded on cell inserts plate (Millicell, Cat #PSHT010R^5) at a density of 80,000 cells per well, and the cells were maintained for 18-21 days in culture medium (1×DMEM with 10% FBS, 0.1 mg/mL Penicillin/Streptomycin). The culture medium was changed every alternate day. Prior to the experiments, the integrity of the cellular monolayer was evaluated by measuring the TEER value using a volt ohm meter and STX100C96 electrode. Only monolayers with TEER values greater than 800 ohm·cm^2 in buffer after the first wash were used.
An assay buffer (HBSS with Ca+2 and Mg+2 buffered with 10 mM HEPES and 25 mM D-Glucose, pH-7.4) was used on apical side as well as on basolateral side.
An intermediate stock solution of a test compound was prepared in DMSO at a concentration of 1 mM in DMSO. This stock solution was spiked in the assay buffer to achieve a target test compound concentration of 10 μM. The organic content of final drug preparation was 1.0% v/v. The bidirectional permeability experiment was done in singlet and the sample analysis was done in duplicate.
The cultured cell monolayer was washed twice with assay buffer (0.4 mL and 0.8 mL was added to the apical and basolateral sides, respectively, of the culture plate), and then buffers from both compartments were discarded.
For the apical to basal (AP>BL) experiment, aliquots of 0.4 mL donor solution (assay buffer, pH 7.4 containing test compound) and 0.8 mL of receiver solutions (assay buffer, pH 7.4, only) were added to the apical and basolateral compartments, respectively. For the basal to apical (BL>AP) experiment, aliquots of 0.8 mL donor solution (assay buffer pH-7.4 containing test compound) and 0.4 mL of receiver solutions (assay buffer, pH-7.4) were added to the basolateral and apical compartments, respectively. The plate was then kept in an incubator at 37° C. for 120 minutes.
Control experiments with Propranolol (High Permeability), Atenolol (Low Permeability), Digoxin (High Efflux-Pgp substrate), and Digoxin+Verapamil (Pgp Inhibitor) in both directions (AP>BL and BL>AP) were performed in separate wells on the same experiment day.
After the completion of the transport experiment, the integrity of the cell monolayer was evaluated by measuring the Lucifer Yellow (LY) rejection. To do this, 400 μL of 10 μM LY was added to each well of the filter plate and incubated for 1 hour at 37° C. Subsequently, the samples were collected from the basolateral compartments, and the LY fluorescence was measured using an excitation wavelength of 485 nm and an emission wavelength of 530 nm. The percent LY rejection across the cell monolayer was calculated by measuring fluorescence in the receiver plate (basolateral compartment) compared to theoretical equilibrium standard.
The study samples (collected from apical and basolateral compartments after 120 min incubation) were analyzed by LCMS/MS, following which the Papp of the compound(s) was calculated in both apical to basal and basal to apical directions. Papp=([DBL]×VBL)/(A×t×[DAP]) where: [DBL]=final drug concentration on the basolateral side, VBL=volume of the basolateral compartment, A=surface area of the cell culture, t=total incubation time, and [DAP]=initial drug concentration on the apical side.

Plasma Kallikrein [2] = target: T1, Plasma Kallikrein (Homo sapiens, UniProt P03952); test: Plasma kallikrein activity in pooled human plasma; assay type: biochemical; parameters: Plasma Kallikrein activity was also measured in pooled human plasma; from tissue; host or cells: pooled human plasma; settings: Z-FR-AMC substrate, activated with 10% Actin FS solution, 10 minutes, read-out: Pooled Human Plasma PKal IC50
T1 sequence (P03952 391-638 limits assumed): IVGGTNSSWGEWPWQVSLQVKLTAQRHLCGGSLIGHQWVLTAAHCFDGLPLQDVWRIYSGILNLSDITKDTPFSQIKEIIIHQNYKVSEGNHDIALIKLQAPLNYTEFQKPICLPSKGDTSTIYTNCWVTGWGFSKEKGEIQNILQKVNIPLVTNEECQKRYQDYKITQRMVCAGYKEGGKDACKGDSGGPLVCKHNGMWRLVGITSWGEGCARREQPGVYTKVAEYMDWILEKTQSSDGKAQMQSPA
T1 sequence (P03952 20-390 partner limits assumed): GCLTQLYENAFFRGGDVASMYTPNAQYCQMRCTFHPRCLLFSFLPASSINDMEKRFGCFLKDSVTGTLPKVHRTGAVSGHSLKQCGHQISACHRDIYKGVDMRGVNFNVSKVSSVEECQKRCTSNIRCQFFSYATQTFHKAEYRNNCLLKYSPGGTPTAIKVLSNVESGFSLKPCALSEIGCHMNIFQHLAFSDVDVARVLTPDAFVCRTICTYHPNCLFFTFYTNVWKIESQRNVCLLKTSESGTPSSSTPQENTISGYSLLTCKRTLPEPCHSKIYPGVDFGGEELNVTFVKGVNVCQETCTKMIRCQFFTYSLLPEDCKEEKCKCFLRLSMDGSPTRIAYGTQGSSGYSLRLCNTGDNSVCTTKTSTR
Description: (§1) Plasma kallikrein protease inhibition assay. Two methods for determining the IC50 of a test compound against Plasma Kallikrein are provided.
Second, Plasma Kallikrein activity was also measured in pooled human plasma. First, a 10% Actin FS solution was prepared in assay buffer. Each test compound was dissolved in DMSO and delivered to the reaction mixture along with Z-FR-AMC substrate and pooled human plasma. The multi-well reaction plate was incubated for five minutes at room temperature. To initiate the reaction, the 10% Actin FS solution was added to each well, and kinetic measurements were taken at Ex/Em at 355/460 nm. The fluorescence signal was recorded every 30 seconds for a total of 10 minutes.

Plasma Kallikrein [3] = target: T1, Plasma Kallikrein; test: Plasma kallikrein protease inhibition assay, purified enzyme; assay type: biochemical; parameters: NS0-derived Gly20-Ala638, with a C-terminal 60-His tag; 60-His (so in the source) (C); purchased R&D Systems 2497-SE; host or cells: Mouse myeloma cell line, NS0; settings: 10 μM Z-FR-AMC substrate, 20-minute pre-incubation, pH 8.0/8.5, room temperature, read-out: Purified PKal IC50
Description: as §1
In the first method was used a reaction buffer composed of 25 mM Tris-HCl (pH 8.0), 100 mM NaCl (pH 8.5), 0.01% Brij35, and 1% DMSO (final). The enzyme used was Plasma Kallikrein (R&D Systems Cat #2497-SE; Recombinant Human Plasma Kallikrein, expressed in Mouse myeloma cell line, NS0-derived Gly20-Ala638, with a C-terminal 60-His tag. MW=70 kDa).
The enzyme was activated by dilution to 200 μg/mL in activation buffer (100 mM Tris, 10 mM CaCl2, 150 mM NaCl, pH 7.5 (TCN), and then combined with an equal volume of 20 μg/mL thermolysin to form a reaction buffer. Each test compound was then dissolved in DMSO and delivered into the reaction buffer. The reaction was initiated by delivering a substrate solution containing 10 μM Z-FR-AMC (Enzo Cat #P-139; AMC: 7-Amino-4-methylcoumarin) into the reaction well after a 20-minute pre-incubation period.
Measurement was conducted with En Vision (PE) with excitation and emission wavelengths of 355 nm and 460 nm, respectively. […]. The enzyme activities were monitored every 5 minutes as a time-course measurement of the increase in signal from fluorescently labeled peptide substrate for 120 minutes at room temperature.
Data was analyzed by taking slope*(signal/time) of the linear portion of measurements. Slope was calculated using Excel, and curve fits were performed using Prism software.

Row | SMILES | Papp at 2 h, 10 µM [1] [×10⁻⁶ cm/s] | IC50 (Plasma Kallikrein [2]) [nM] | IC50 (Plasma Kallikrein [3]) [nM]
1 | N#Cc1cccc(Cc2ccc(Cn3cc(C(=O)NCc4ccc(C(=N)N)cc4)cn3)cc2)c1 [Example 28, N-(4-carbamimidoylbenzyl)-1-(4-(3-cyanobenzyl)benzyl)-1H-pyrazole-4-carboxamide] | < 2 | < 100 | < 1
2 | COc1cc(CNC(=O)c2cnn(Cc3ccc(C(C)(C)C#N)cc3)c2)cc(F)c1C(=N)N [Example 48, N-(4-carbamimidoyl-3-fluoro-5-methoxybenzyl)-1-(4-(2-cyanopropan-2-yl)benzyl)-1H-pyrazole-4-carboxamide] | < 2 | 100 to 1000 | 10 to 100
3 | CC(C)(C#N)c1ccc(Cn2cc(C(=O)NCc3ccc(C(=N)N)cc3)cn2)cc1 [Example 7, N-(4-carbamimidoylbenzyl)-1-(4-(2-cyanopropan-2-yl)benzyl)-1H-pyrazole-4-carboxamide] | < 2 | < 100 | < 1
4 | COCCc1ccc(Cn2ncc(C(=O)NCc3ccc(C(=N)N)cc3)c2COC)cc1 [Example 87, N-(4-carbamimidoylbenzyl)-1-(4-(2-methoxyethyl)benzyl)-5-(methoxymethyl)-1H-pyrazole-4-carboxamide] | < 2 | < 100 | 10 to 100
5 | CNC(=O)Cc1ccc(Cn2cc(C(=O)NCc3ccc(C(=N)N)cc3)cn2)cc1 [Example 19, N-(4-carbamimidoylbenzyl)-1-(4-(2-(methylamino)-2-oxoethyl)benzyl)-1H-pyrazole-4-carboxamide] | < 2 | < 100 | < 1
